Test system: SKBR3
Assay: Cell survival by cell counting, SKBR3
Assay type: cell-based, human
Conditions: SKBR3, 72 h
Experimental: Cells seeded in a 24-well plate were treated with the indicated compounds in serum free DMEM or DMEM containing 0.5% FBS (PC3). After 72 h, the number of surviving cells was assessed by manual cell counting or by using the cell counter CDA-500 (Sysmex, Milton Keynes, UK). Alternatively, after 48 h, the number of apoptotic cells was assessed by acridine orange/ethidium bromide assay as described ([Piccolo et al, 2004]; [Maffucci et al, 2005]). SRB test was carried out in SKOV-3 and PC3 seeded in 96-well plate (3800 cells per well or 5800 cells per well, respectively) after 72 h of treatment as described ([Cappella et al, 2001]).
The number of surviving cells was assessed by cell counting. Data are mean±s.e. of n=4 (A) and n=2 (B) independent experiments. ^**=P<0.05. […] The number of apoptotic cells was assessed by acridine orange/ethidium bromide assay. Data are mean±s.e. of three independent experiments. ^**=P<0.05.

## O=P(O)(O)OC1C(OCc2ccccc2)C(OP(=O)(O)O)C(OP(=O)(O)O)C(OP(=O)(O)O)C1OP(=O)(O)O (stereo not shown) [2-O-Bn-InsP5, 2-O-benzyl-myo-inositol 1,3,4,5,6-pentakisphosphate]
  number of surviving cells: strongly reduced the number of surviving
